In ChEMBL document CHEMBL4627246, “Pyroglutamide-Based P2X7 Receptor Antagonists Targeting Inflammatory Bowel Disease” (J Med Chem, 2020):

Key:
Format in all cases: cell-based
[1] = tested on: A498; experiment: Cytotoxicity against human A498 cells assessed as effect on cell growth at 10 uM incubated for 48 hrs by sulforhodamine B assay; details: a498, 48 h
[2] = tested on: SF-539; experiment: Cytotoxicity against human SF539 cells assessed as effect on cell growth at 10 uM incubated for 48 hrs by sulforhodamine B assay; details: sf-539, 48 h
[3] = tested on: SW-620; experiment: Cytotoxicity against human SW620 cells assessed as effect on cell growth at 10 uM incubated for 48 hrs by sulforhodamine B assay; details: sw-620, 48 h
[4] = tested on: NCI-H226; experiment: Cytotoxicity against human NCI-H226 cells assessed as effect on cell growth at 10 uM incubated for 48 hrs by sulforhodamine B assay; details: nci-h226, 48 h
[5] = tested on: SN12C; experiment: Cytotoxicity against human SN12C cells assessed as effect on cell growth at 10 uM incubated for 48 hrs by sulforhodamine B assay
[6] = tested on: 786-0; experiment: Cytotoxicity against human 786-0 cells assessed as effect on cell growth at 10 uM incubated for 48 hrs by sulforhodamine B assay; details: 786-0, 48 h
[7] = tested on: NCI-H322M; experiment: Cytotoxicity against human NCI-H322M cells assessed as effect on cell growth at 10 uM incubated for 48 hrs by sulforhodamine B assay
[8] = tested on: MDA-MB-231; experiment: Cytotoxicity against human MDA-MB-231 cells assessed as effect on cell growth at 10 uM incubated for 48 hrs by sulforhodamine B assay; details: mda-mb-231, 48 h
[9] = tested on: HT-29; experiment: Cytotoxicity against human HT-29 cells assessed as effect on cell growth at 10 uM incubated for 48 hrs by sulforhodamine B assay; details: ht-29, 48 h
[10] = tested on: SF-268; experiment: Cytotoxicity against human SF268 cells assessed as effect on cell growth at 10 uM incubated for 48 hrs by sulforhodamine B assay; details: sf-268, 48 h
[11] = tested on: BT-549; experiment: Cytotoxicity against human BT549 cells assessed as effect on cell growth at 10 uM incubated for 48 hrs by sulforhodamine B assay; details: bt-549, 48 h
[12] = tested on: OVCAR-5; experiment: Cytotoxicity against human OVCAR5 cells assessed as effect on cell growth at 10 uM incubated for 48 hrs by sulforhodamine B assay; details: ovcar-5, 48 h
[13] = tested on: SK-MEL-28; experiment: Cytotoxicity against human SK-MEL-28 cells assessed as effect on cell growth at 10 uM incubated for 48 hrs by sulforhodamine B assay; details: sk-mel-28, 48 h
[14] = tested on: COLO 205; experiment: Cytotoxicity against human COLO205 cells assessed as effect on cell growth at 10 uM incubated for 48 hrs by sulforhodamine B assay; details: colo 205, 48 h
[15] = tested on: NCI-H23; experiment: Cytotoxicity against human NCI-H23 cells assessed as effect on cell growth at 10 uM incubated for 48 hrs by sulforhodamine B assay; details: nci-h23, 48 h
[16] = tested on: OVCAR-8; experiment: Cytotoxicity against human OVCAR8 cells assessed as effect on cell growth at 10 uM incubated for 48 hrs by sulforhodamine B assay; details: ovcar-8, 48 h
[17] = tested on: HOP-92; experiment: Cytotoxicity against human HOP92 cells assessed as effect on cell growth at 10 uM incubated for 48 hrs by sulforhodamine B assay; details: hop-92, 48 h
[18] = tested on: A549; experiment: Cytotoxicity against human A549/ATCC cells assessed as effect on cell growth at 10 uM incubated for 48 hrs by sulforhodamine B assay; details: a549, 48 h
[19] = tested on: SR; experiment: Cytotoxicity against human SR cells assessed as effect on cell growth at 10 uM incubated for 48 hrs by sulforhodamine B assay
[20] = tested on: HCC 2998; experiment: Cytotoxicity against human HCC2998 cells assessed as effect on cell growth at 10 uM incubated for 48 hrs by sulforhodamine B assay; details: hcc 2998, 48 h

Measured: Activity

O=C(NCc1ccccc1Cl)[C@@H]1CCC(=O)N1Cc1ccc(Cl)cc1
Non-Toxic: [1] | [2] | [3] | [4] | [5] | [6] | [7] | [8] | [9] | [10] | [11] | [12] | [13] | [14] | [15] | [16] | [17] | [18] | [19] | [20]

COC(=O)[C@@H]1C/C(=C\NCc2ccc(Cl)cc2Cl)C(=O)N1C(=O)OC
Non-Toxic: [1] | [2] | [3] | [4] | [5] | [6] | [7] | [8] | [9] | [10] | [11] | [12] | [13] | [14] | [15] | [16] | [17] | [18] | [19] | [20]

C[n+]1ccccc1C(=O)NCc1ccc(Cl)cc1Cl.[I-]
Non-Toxic: [1] | [2] | [3] | [4] | [5] | [6] | [7] | [8] | [9] | [10] | [11] | [12] | [13] | [14] | [15] | [16] | [17] | [18] | [19] | [20]

O=C(Nc1ccc(Cl)cc1Cl)[C@@H]1CCC(=O)N1Cc1ccccc1Cl
Non-Toxic: [1] | [2] | [3] | [4] | [5] | [6] | [7] | [8] | [9] | [10] | [11] | [12] | [13] | [14] | [15] | [16] | [17] | [18] | [19] | [20]

COc1ccc(N2C(=O)[C@@H]3C/C(=C\N(C)C)C(=O)N3C2N(C)C)cc1 (stereo not given in full)
Non-Toxic: [1] | [2] | [3] | [4] | [5] | [6] | [7] | [8] | [9] | [10] | [11] | [12] | [13] | [14] | [15] | [16] | [17] | [18] | [19] | [20]

O=C(NCc1ccc(Cl)cc1Cl)[C@@H]1CCC(=O)N1c1ccc(Cl)cc1Cl
Non-Toxic: [1] | [2] | [3] | [4] | [5] | [6] | [7] | [8] | [9] | [10] | [11] | [12] | [13] | [14] | [15] | [16] | [17] | [18] | [19] | [20]

CN1C(=O)C(C)(C)C[C@H]1C(=O)NCc1cccc(C(F)(F)F)c1Cl
Non-Toxic: [1] | [2] | [3] | [4] | [5] | [6] | [7] | [8] | [9] | [10] | [11] | [12] | [13] | [14] | [15] | [16] | [17] | [18] | [19] | [20]

O=C(NCc1ccccc1Cl)[C@@H]1CCC(=O)N1Cc1ccccc1
Non-Toxic: [1] | [2] | [3] | [4] | [5] | [6] | [7] | [8] | [9] | [10] | [11] | [12] | [13] | [14] | [15] | [16] | [17] | [18] | [19] | [20]

COc1ccc(CN2C(=O)[C@@H]3C/C(=C\N(C)C)C(=O)N3C2N(C)C)c(OC)c1 (stereo not given in full)
Non-Toxic: [1] | [2] | [3] | [4] | [5] | [6] | [7] | [8] | [9] | [10] | [11] | [12] | [13] | [14] | [15] | [16] | [17] | [18] | [19] | [20]
